One compound from US20070148262A1 (priority 2005, published 2007) can be followed below.

Assay [1] relates to avian influenza viruses (AIV) (field isolate No. 02-8, virus strain K228). Format: cell-based.
In a further assay the test system is Salmonella cholerasuis. Description: comparison of antibacterial effects: Green-zone A vs malic acid and grapefruit seed extract. Format: cell-based. Also noted: key: NBD: No Bacteria Detected; BD: Bacteria Detected. Conditions: 5% organic matter dilution (yeast extract, hard water). The method, then:
The antibacterial effect of Green-zone A prepared in Example 1 was compared to the effect of each of malic acid and grapefruit seed extract alone.
A bacterial strain used in the test of antibacterial activity was Salmonella cholerasuis. The Salmonella strain was cultured in nutrient medium at 37° C. for 24 hours and used at a concentration of 5×10^8 cells/ml of the nutrient medium.
Green-zone A prepared in Example 1 was undiluted and diluted 2-fold and 5-fold with hard water. Meanwhile, a composition of 50 g malic acid completely dissolved in 200 ml of purified water, and a composition of 6 g grapefruit seed extract completely dissolved in 200 ml of distilled water, were undiluted and diluted 2-fold and 5-fold.
4 ml of the prepared Salmonella strain was mixed with 96 ml of 5% organic matter dilution (4° C., 5% yeast extract, pH 7.0, diluted with hard water). 2.5 ml of the mixture solution was taken and allowed to react at 4° C. for 30 minutes.
After completion of the reaction, 1 ml of the bacterial dilution was added and mixed with 9 ml of neutralizing medium (containing 5% horse serum inactivated in nutrient medium) at 37° C. Then, the mixture was added into test tubes containing 0.1 ml of each of nutrient media, and was proliferated in an incubator at 37° C. for 48 hours.
After completion of the proliferation, the […] was re-inoculated into blood medium and measured for the bactericidal activity of each of the compositions (Table 15).

Each structure is given as a SMILES string.

For the compound `O=C(O)CC(O)C(=O)O` (stereo not shown) [Malic acid, malic acid], in assay [1], the “disinfectant effects up to dilutions of” value is on record as “no disinfectant effects”. The bactericidal activity entry in the assay with Salmonella cholerasuis (Original solution) is reported as “NBD”; with Salmonella cholerasuis (dilution 1:2), “BD”; in the assay with Salmonella cholerasuis (dilution 1:5), “BD”.
